Results taken from PMC6132687, “Stem cells are the most sensitive screening tool to identify toxicity of GATA4-targeted novel small-molecule compounds” (Archives of Toxicology, 2018).

What was measured:
hiPSCs = test: High-content analysis of proliferation (Ki67, BrdU, DNA) in hiPSCs; format: cell-based, human; settings: 24 h
Procedure: (§1) For proliferation studies, the cells were exposed to the test compounds for 24 h and 10 µM BrdU was added to the culture medium for the last 1 h (hiPSCs) or 24 h (hiPSC-CMs) before fixation with 4% paraformaldehyde (PFA) for 15 min at room temperature (rt). The cells were then permeabilized with 0.1% Triton X-100 for 10 min and DNA was hydrolysed with 2 M hydrochloric acid for 30 min at rt followed by neutralization with 0.1 M sodium borate (pH 8.5) for 30 min. Non-specific binding sites were blocked with 4% FBS in phosphate-buffered saline (PBS) for 45 min at rt, whereafter the cells were incubated with anti-Ki67 (1:250) and anti-BrdU (1:250) antibodies for 60 min at rt. Cells were then washed 3 × 5 min with PBS and incubated with Alexa Fluor-conjugated secondary antibodies (1:200) and DAPI (5 µg/ml) for 45 min at rt. In hiPSC-CM cultures, staining with primary antibody against α-actinin (at 1:600) was additionally used to identify myocytes. The plates were imaged and analysed with CellInsight CX5 High Content Screening Platform (Thermo Scientific) using a 10× objective (Olympus UPlanFL N 10×/0.3). For quantification, the cells were first identified based on DAPI fluorescence, which defined the nuclear area for quantifications. In hiPSC-CM cultures, non-myocytes were excluded based on absence of α-actinin staining and nuclear area. The thresholds for α-actinin fluorescence intensity and nuclear area were set manually in each experiment to allow optimal exclusion of non-myocytes. In hiPSC-CMs cultures, the data were collected only from α-actinin positive cells. The thresholds for Ki67+ and BrdU+ cells were also set manually in each experiment as described previously (Mioulane et al. [2012]) to adjust for slight variation in staining intensity.

[1] = tested on: extracellular signal-regulated kinase 1/2 signalling; set-up: method as in Ferreira et al. [2017]; settings: systemic administration in heart-targeted nanoparticles; ref Ferreira et al. [2017]; cited from earlier work
hiPSC-CMs = test: High-content analysis of proliferation (Ki67, BrdU, DNA) in hiPSC-CMs; format: cell-based, human; settings: 24 h; for average intensity of nuclear Ki67 staining / increase in the percentage of Ki67+ cells compared to DMSO: 30 µM
Procedure: as §1

cardiac function = tested on: cardiac function; set-up: method as in Kinnunen et al. [2018]; settings: after myocardial infarction or angiotensin II-induced cardiac hypertrophy; ref Kinnunen et al. [2018]; cited from earlier work
[2] = tested on: primary neonatal rat ventricular cardiomyocytes (NRVCs); test: MTT assay in NRVCs; format: cell-based; settings: 24 h
Procedure: The cells were exposed to the test compounds for 24 h and cytotoxicity was quantified with MTT and LDH assays as described previously (Talman et al. [2011]). For the determination of cell membrane integrity, 50 µl of medium from each well was transferred onto a new 96-well plate followed by addition of 50 µl of substrate solution containing 1.3 mM β-nicotinamide adenine dinucleotide, 660 µM iodonitrotetrazolium, 54 mM L(+)-lactic acid, 280 µM phenazine methosulphate and 0.2 M Tris–HCl (pH 8.0). After a 30-min incubation, the reaction was stopped by adding 50 µl of 1 M acetic acid to each well and absorbance was measured at 490 nm using Victor2 plate reader (PerkinElmer, Turku, Finland). Spontaneous LDH release was measured from untreated cells, maximal LDH release from cells lysed with 0.9% Triton X-100 and background absorbance was measured from wells without cells. After background extraction, cytotoxicity was calculated as follows: cytotoxicity (%) = [(sample − spontaneous LDH release)/(maximal LDH release − spontaneous LDH release)] × 100. For quantification of metabolic activity, 3-(4,5-dimethylthiazol-2-yl)-2,5-diphenyltetrazolium bromide (MTT) was added to the cells at a final concentration of 0.5 mg/ml followed by 2 h incubation in cell culture conditions. […] Absorbance was measured at 550 nm and absorbance at 650 nm was subtracted as background. […]

**Q.** With `CCN(CC)c1ccc(NC(=O)c2c(-c3ccccc3)noc2C)cc1` [3i-1000] as the compound, how does the “proportion of BrdU-positive cells” value (hiPSCs; 1 µM) read?
**A.** not at 1 µM

**Q.** And the “proportion of Ki67 positive cells” value (hiPSCs; 1 µM)?
**A.** not at 1 µM

**Q.** What about the “proportion of BrdU-positive cells” value (hiPSCs; 10 µM) of the same compound?
**A.** decreased

**Q.** And the “proportion of Ki67 positive cells” value (hiPSCs; 10 µM)?
**A.** decreased

**Q.** What about the “average intensity of nuclear BrdU staining” value (hiPSCs) of the same compound?
**A.** decreased average intensity

**Q.** What about the “average intensity of nuclear Ki67 staining” value (hiPSCs) of the same compound?
**A.** decreased average intensity

**Q.** What about the cell numbers (hiPSCs) of the same compound?
**A.** significantly reduced

**Q.** And the “decrease in the average total intensity of DNA staining” value (hiPSCs)?
**A.** 66%

**Q.** What about the “decrease in cells with high total DNA staining intensity (G2 phase)” value (hiPSCs; P = 0.062) of the same compound?
**A.** 77%

**Q.** And the “pro-hypertrophic ERK1/2 signalling in the hypoxic endocardial layer of the left ventricle” value [1]?
**A.** inhibits

**Q.** What about the “decrease in BrdU+ hiPSC-CMs as compared to DMSO” value (hiPSC-CMs; P = 0.233) of the same compound?
**A.** 43%

**Q.** And the “average intensity of nuclear Ki67 staining” value (hiPSC-CMs; hiPSC-CMs)?
**A.** substantial increases

**Q.** What about the “increase in the percentage of Ki67+ cells compared to DMSO” value (hiPSC-CMs; hiPSC-CMs) of the same compound?
**A.** 1.7 fold

**Q.** What about the “average intensity of nuclear BrdU staining” value (hiPSC-CMs; hiPSC-CMs) of the same compound?
**A.** tendency for 3i-1000 to induce a decrease

**Q.** What about the “average total intensity of DNA staining” value (hiPSC-CMs; hiPSC-CMs) of the same compound?
**A.** neither 3i-1000 nor 3i-1047 caused significant changes

**Q.** What about the “percentage of cells with high total intensity of DNA staining” value (hiPSC-CMs; hiPSC-CMs) of the same compound?
**A.** neither 3i-1000 nor 3i-1047 caused significant changes

**Q.** And the cardiac function (cardiac function)?
**A.** improves cardiac function

**Q.** Which “increase in metabolic activity in NRVCs” value [2] does the source give for `CCN(CC)c1ccc(NC(=O)c2c(C)noc2-c2cc(C)on2)cc1` [3i-1047] here?
**A.** not observed

**Q.** What about the “corresponding average staining intensities (Ki67, BrdU, DNA)” value (hiPSCs; 1 or 10 µM) of the same compound?
**A.** no effect

**Q.** And the “percentage of BrdU+ cells” value (hiPSCs; 1 or 10 µM)?
**A.** no effect

**Q.** What about the “percentage of Ki67+ cells” value (hiPSCs; 1 or 10 µM) of the same compound?
**A.** no effect

**Q.** What about the “percentage of high DNA cells” value (hiPSCs; 1 or 10 µM) of the same compound?
**A.** no effect

**Q.** What about the “average intensity of nuclear Ki67 staining” value (hiPSC-CMs; hiPSC-CMs) of the same compound?
**A.** substantial increases

**Q.** What about the “increase in the percentage of Ki67+ cells compared to DMSO” value (hiPSC-CMs; hiPSC-CMs) of the same compound?
**A.** 1.5 fold

**Q.** And the “average intensity of nuclear BrdU staining” value (hiPSC-CMs; hiPSC-CMs)?
**A.** no effect

**Q.** What about the “average total intensity of DNA staining” value (hiPSC-CMs; hiPSC-CMs) of the same compound?
**A.** neither 3i-1000 nor 3i-1047 caused significant changes

**Q.** What about the “percentage of BrdU+ cells” value (hiPSC-CMs; hiPSC-CMs) of the same compound?
**A.** no effect

**Q.** And the “percentage of cells with high total intensity of DNA staining” value (hiPSC-CMs; hiPSC-CMs)?
**A.** neither 3i-1000 nor 3i-1047 caused significant changes
